Ten compounds from ChEMBL document CHEMBL1201862, “PubChem BioAssay data set” (2004) can be followed below.

Some test systems named below: OVCAR-4; HL-60; MCF7; UACC-62; NCI/ADR-RES; SK-OV-3; Hs-578T; SF-268; RXF 393; NCI-H226; CAKI-1; HCT-15; EKVX; PC-3; HCT-116; TK-10; UACC-257; CCRF-CEM; HT-29.
Assay in all cases: DTP human tumour cell line panel, 48 h

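Results reflect a 48-hour exposure of cells in 96-well plates to compound at five concentrations. GI50 marks 50% less growth.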 Active and inactive are the calls of the source. Rule as the data show it: active = GI50 up to about 1.1 µM and inactive = higher.

As to `CC(=O)O[C@@H]1C[C@@]23C[C@@]24CC[C@H](OC2OCC(O)C(O)C2O)C(C)(C)[C@@H]4CC=C3[C@]2(C)C[C@@H]3OC4(C[C@@H](C)[C@@H]3[C@@]12C)OC(O)[C@@]1(C)O[C@@H]41` (some centres not stated), the GI50 in the assay on OVCAR-4 was 48.4 µM (inactive); in the assay with HL-60, 7.73 µM (inactive); in the assay on MCF7, 30.8 µM (inactive); with UACC-62, 21.7 µM (inactive); in the assay on NCI/ADR-RES, 43.9 µM (inactive); in the assay on SK-OV-3 it was 30.4 µM (inactive). Further, the GI50 in the assay with Hs-578T was 40.4 µM (inactive); with SF-268, 58.7 µM (inactive); with RXF 393, 15.9 µM (inactive); in the assay on NCI-H226 it was 35.4 µM (inactive); in the assay on CAKI-1, 46.1 µM (inactive); with HCT-15, 31.6 µM. Besides, the GI50 in the assay on EKVX was 33.4 µM (inactive); in the assay on PC-3 it was 22.9 µM (inactive); in the assay with HCT-116, 19.4 µM (inactive); in the assay on TK-10, 36 µM (inactive); in the assay with UACC-257, 26.9 µM (inactive); in the assay on CCRF-CEM, 11.7 µM (inactive). Besides, the GI50 in the assay on HT-29 is 33.2 µM (inactive).
Regarding `Cc1cc(CN2CCCCC2)c(O)c(CN2CCCCC2)c1`, the GI50 in the assay with OVCAR-4, in the assay on HL-60, with MCF7, in the assay on UACC-62, with NCI/ADR-RES and in the assay on SK-OV-3 was > 100 µM (inactive) throughout. For the same compound, the GI50 in the assay on Hs-578T was > 100 µM (inactive); in the assay on SF-268 it was > 100 µM (inactive); in the assay with RXF 393 it was > 100 µM (inactive); with NCI-H226 it was > 100 µM (inactive); in the assay with CAKI-1, > 100 µM (inactive); in the assay with HCT-15, more than 100 µM. Further, the GI50 in the assay on EKVX is > 100 µM (inactive); with PC-3, > 100 µM (inactive); in the assay with HCT-116, > 100 µM (inactive); in the assay with TK-10 it was > 100 µM (inactive); in the assay on UACC-257, > 100 µM (inactive); in the assay on CCRF-CEM, 41.3 µM (inactive). The GI50 in the assay on HT-29 is > 100 µM (inactive).
As for `O=c1c2ccccc2c2ccccc2c(=O)n1Cc1ccc2c(c1)OCO2`, the GI50 in the assay with OVCAR-4 was > 67.3 µM (inactive); in the assay on HL-60, 11.4 µM (inactive); in the assay on MCF7, 38.9 µM (inactive); in the assay with UACC-62, 21.6 µM (inactive); in the assay on NCI/ADR-RES, 24.9 µM (inactive); in the assay with SK-OV-3, 41.4 µM (inactive). Moreover, the GI50 with Hs-578T is 37.9 µM (inactive); with SF-268, 59.7 µM (inactive); in the assay on RXF 393, 36 µM (inactive); with NCI-H226, 56.1 µM (inactive); in the assay on CAKI-1, 69.7 µM (inactive); with HCT-15, 17 µM. In addition, the GI50 in the assay on EKVX is 36.1 µM (inactive); in the assay with PC-3, 42.8 µM (inactive); with HCT-116, 19.1 µM (inactive); with TK-10, > 100 µM (inactive); in the assay with UACC-257 it was 57.1 µM (inactive); in the assay on CCRF-CEM it was 19.1 µM (inactive). For the same compound, the GI50 in the assay with HT-29 is 22.6 µM (inactive).
With `CCC(C#N)NCc1ccc(CNC(C#N)CC)cc1` (configuration not stated), the GI50 was > 100 µM (inactive) in the assay with OVCAR-4; > 100 µM (inactive) with HL-60; > 100 µM (inactive) with MCF7; 86.5 µM (inactive) with UACC-62; > 100 µM (inactive) in the assay on NCI/ADR-RES; > 100 µM (inactive) in the assay on SK-OV-3. Moreover, the GI50 with Hs-578T was > 100 µM (inactive); in the assay with SF-268, > 100 µM (inactive); in the assay on RXF 393, > 100 µM (inactive); in the assay on NCI-H226 it was > 100 µM (inactive); in the assay on CAKI-1, > 100 µM (inactive); in the assay on HCT-15, more than 100 µM. Moreover, the GI50 with EKVX, with PC-3, with HCT-116, in the assay on TK-10, with UACC-257 and in the assay on CCRF-CEM was > 100 µM (inactive) in each case. Also, the GI50 with HT-29 is > 100 µM (inactive).
For `S=C(NC/C(Br)=C/Br)Nc1cccc2ccccc12`, the GI50 was 30.3 µM (inactive) in the assay with OVCAR-4; 12.9 µM (inactive) with HL-60; 20 µM (inactive) in the assay on MCF7; 24.2 µM (inactive) with UACC-62; 19 µM (inactive) in the assay on NCI/ADR-RES; 37.5 µM (inactive) in the assay with SK-OV-3. Further, the GI50 with Hs-578T is > 100 µM (inactive); with RXF 393 it was 31.3 µM (inactive); in the assay on NCI-H226 it was 26.7 µM (inactive); in the assay on CAKI-1 it was 29.2 µM (inactive); in the assay on HCT-15 it was 31.3 µM; in the assay with EKVX, 28.9 µM (inactive). The GI50 with PC-3 was 23.1 µM (inactive); in the assay on HCT-116, 24.2 µM (inactive); in the assay on TK-10, 40.6 µM (inactive); in the assay on UACC-257 it was 22.5 µM (inactive); in the assay with CCRF-CEM it was 18.3 µM (inactive); in the assay with HT-29, 34.5 µM (inactive).
With `O=c1[nH]/c(=C/c2ccc(OCc3ccccc3)cn2)c(=O)[nH]/c1=C/c1cccnc1`, the GI50 with OVCAR-4 is 1.25 µM (inactive); in the assay on HL-60, 0.117 µM (active); in the assay on MCF7 it was 0.378 µM (active); in the assay with UACC-62, 0.192 µM (active); in the assay on NCI/ADR-RES, 0.345 µM (active); in the assay with SK-OV-3 it was 0.703 µM (active). The GI50 was 0.526 µM (active) in the assay with Hs-578T; 0.542 µM (active) in the assay with SF-268; 0.574 µM (active) in the assay on RXF 393; 0.904 µM (active) with NCI-H226; 0.479 µM (active) with CAKI-1; 0.254 µM in the assay on HCT-15. In addition, the GI50 is 1.65 µM (inactive) in the assay with EKVX; 0.423 µM (active) with PC-3; 0.342 µM (active) in the assay with HCT-116; 2.18 µM (inactive) in the assay with TK-10; 0.537 µM (active) in the assay on CCRF-CEM; 0.759 µM (active) in the assay with HT-29.
As for `Cc1cc2nc(-c3c(F)cccc3F)n(Cc3c(F)cccc3F)c2cc1C`, the GI50 in the assay with OVCAR-4 is 15 µM (inactive); in the assay on HL-60, 16.3 µM (inactive); in the assay on MCF7, 15.2 µM (inactive); with NCI/ADR-RES, 18.5 µM (inactive); with SK-OV-3 it was 16.9 µM (inactive); in the assay on Hs-578T it was 19.2 µM (inactive). The GI50 with SF-268 is 18.8 µM (inactive); with RXF 393, 23.2 µM (inactive); with NCI-H226, 15.7 µM (inactive); with CAKI-1, 15.2 µM (inactive); in the assay on HCT-15, 14.4 µM; in the assay on EKVX, 8.24 µM (inactive). Besides, the GI50 is 15.7 µM (inactive) in the assay with PC-3; 12.1 µM (inactive) with HCT-116; 29.4 µM (inactive) with TK-10; 16.1 µM (inactive) with UACC-257; 22.7 µM (inactive) in the assay on CCRF-CEM; 15.5 µM (inactive) with HT-29.
Regarding `N=C(N)NS(=O)(=O)c1ccc(NNc2c3ccccc3nc3ccccc23)cc1`, the GI50 with OVCAR-4 is 4.85 µM (inactive); with HL-60, 4.49 µM (inactive); in the assay with MCF7, 2.48 µM (inactive); in the assay with UACC-62, 11.9 µM (inactive); with NCI/ADR-RES, 26.4 µM (inactive); with SK-OV-3, 11.1 µM (inactive). Further, the GI50 with Hs-578T is 23.9 µM (inactive); in the assay with SF-268, 10.4 µM (inactive); with RXF 393, 12.9 µM (inactive); in the assay with NCI-H226, 1.08 µM (active); in the assay with CAKI-1 it was 15.8 µM (inactive); with HCT-15, 18.6 µM. In addition, the GI50 in the assay with EKVX was 10.6 µM (inactive); in the assay with PC-3, 8.75 µM (inactive); in the assay on HCT-116 it was 8.34 µM (inactive); in the assay with TK-10, 16.4 µM (inactive); in the assay with UACC-257 it was 20 µM (inactive); with CCRF-CEM, 1.23 µM (inactive). Besides, the GI50 in the assay with HT-29 was 7.28 µM (inactive).
As for `N#Cc1cc([N+](=O)[O-])ccc1NC(=O)/C(=N\NC(=O)c1ccncc1)C(c1cnc2ccc([N+](=O)[O-])cc2n1)[N+](=O)[O-]` (configuration not stated), the GI50 is 2.09 µM (inactive) in the assay on OVCAR-4; 3.51 µM (inactive) in the assay on HL-60; 1.55 µM (inactive) with MCF7; 1.52 µM (inactive) in the assay on UACC-62; 6.41 µM (inactive) in the assay on NCI/ADR-RES; 8.02 µM (inactive) in the assay on SK-OV-3. Further, the GI50 is 2.26 µM (inactive) in the assay on Hs-578T; 2.86 µM (inactive) with SF-268; 4.44 µM (inactive) in the assay with RXF 393; 2.45 µM (inactive) in the assay with NCI-H226; 5.98 µM (inactive) in the assay on CAKI-1; 2.03 µM with HCT-15. In addition, the GI50 in the assay on EKVX was 9.31 µM (inactive); with PC-3, 3.33 µM (inactive); in the assay with HCT-116 it was 2.43 µM (inactive); in the assay with TK-10 it was 14.2 µM (inactive); in the assay with UACC-257 it was 1.55 µM (inactive); in the assay with CCRF-CEM it was 3.38 µM (inactive). Moreover, the GI50 in the assay with HT-29 was 19.2 µM (inactive).
`CC1=NN(c2ccc(S(=O)(=O)O)cc2)C2(C1)C(Cl)C(=O)N2c1nc2ccccc2s1` (configuration not stated): the GI50 with OVCAR-4 is > 100 µM (inactive); in the assay on HL-60 it was > 100 µM (inactive); with MCF7, > 100 µM (inactive); in the assay with UACC-62 it was 95.9 µM (inactive); with NCI/ADR-RES, > 100 µM (inactive); in the assay with SK-OV-3, > 100 µM (inactive). Besides, the GI50 in the assay on Hs-578T is > 100 µM (inactive); with SF-268, > 100 µM (inactive); with RXF 393, > 100 µM (inactive); with NCI-H226 it was 21.4 µM (inactive); in the assay on CAKI-1, > 100 µM (inactive); in the assay with HCT-15, more than 100 µM. The GI50 with EKVX is 55.7 µM (inactive); in the assay with PC-3, > 100 µM (inactive); with HCT-116, > 100 µM (inactive); in the assay on TK-10, > 100 µM (inactive); in the assay with UACC-257, > 100 µM (inactive); in the assay on CCRF-CEM, > 100 µM (inactive). In addition, the GI50 in the assay on HT-29 is > 100 µM (inactive).

By GI50 is commonly meant the concentration at which growth is held to half of that of the control.
